Tested on: pro-inflammatory cytokine IL-6
Experiment: Test 1: IL-6 secretion by stress-induced senescent fibroblasts (ELISA)
Format: cell-based, human
Method: Experimentally, the test was carried out on primary human fibroblasts (abbreviation “NHDF” for “Normal Human Dermal Fibroblasts”) isolated from breast plastic surgery from a patient. These NHDFs were cultured in a complete “DMEM” culture medium (with 4.5 g/l of glucose and 10% of fetal calf serum (FCS)), then maintained in an atmosphere at 37° C. and 10% of CO2. On D-2, the fibroblasts were seeded in 6-well plates at a rate of 1.10^4 cells/cm^2. On D0, the fibroblasts were subjected to stress inducing premature senescence ([…] hydrogen peroxide, H2O2, for 2 hours), then incubated at 37° C. and 10% CO2 for 72 hours in order to leave senescence settle. On D+3, these senescent fibroblasts induced by such stress (abbreviation “SIPS-fibro” for “Stress-Induced Premature Senescent-fibroblasts”) were incubated for 24 hours in the presence of different weight ratios of wogonin to baicalein (abbreviation “W/B”) of synthetic origin. On D+4, the culture supernatants were harvested in order to perform an ELISA assay for the pro-inflammatory cytokine IL-6 (“R&DSystem kit, ref. D6050”). The results obtained were then normalized with respect to the quantity of cells per condition and subjected to statistical analysis in triplicate. The results are collated in Table 1 below, in particular expressed as % inhibition of IL-6 secretion relative to the senescent control.

Compound: COc1c(O)cc(O)c2c(=O)cc(-c3ccccc3)oc12 [wogonine, 5,7-dihydroxy-8-methoxyflavone]
- % inhibition of IL-6 secretion (relative to the senescent control, senescent NHDF, 24 hours): −10%
- Amount of IL-6 secreted (senescent NHDF (H2O2 stress), incubated 24 hours with compound, ELISA): 9.1 ng/10^6 cells

From patent publication US20230338453A1, “PROCESS FOR PRODUCING A HYDROLYSATE OF SCUTELLARIA ROOT, WHICH IS ENRICHED AND STANDARDIZED WITH FLAVONOIDS OF INTEREST, THE HYDROLYSATE OBTAINED BY SUCH A PROCESS, AND COSMETIC AND DERMOCOSMETIC APPLICATIONS OF SUCH A HYDROLYSATE” (EXSYMOL, priority 2020, published 2023)
